Holding throughout (assay): In vivo IPTG dose-response of LacI-regulated eYFP expression from the pVER plasmid in E. coli grown in rich M9 medium at 37 °C, measured by flow cytometry and fitted to the Hill equation by Bayesian MCMC (posterior mean and SD).
Common to all, as to settings: read-out: log_ec50 (base-10 logarithm of EC50 in μmol/L) (converted)
In general terms: Flow cytometry measures light scatter and fluorescence of single cells or particles in a stream.

One assay concerns the target T1, pVER-IPTG-004(V136E) (Escherichia coli, UniProt P03023, A87P/E357G/V136E/V301M).
T1 construct: gene lacI; LacI expressed from pVER plasmid
The class given is cell-based, E. coli MG1655Δlac. The method, then: (§1) All reported measurements were completed using E. coli strain MG1655Δlac, in which the lactose operon of E. coli strain MG1655 (ATCC #47076) was replaced with the bleomycin resistance gene from Streptoalloteichus hindustanus (Shble).
(§2) Dose-response curves were measured with flow cytometry using E. coli MG1655Δlac transformed with variants of the pVER plasmid, described previously. The plasmid contained different variants of the lacI coding DNA sequence (CDS), as described in the text, and an expression cassette with enhanced yellow fluorescent protein (eYFP) under the control of the lactose operator (lacO). The lacI CDS was verified with Sanger sequencing for each variant.
(§3) All cultures were grown in a rich M9 media (3 g/L KH2PO4, 6.78 g/L Na2HPO4, 0.5 g/L NaCl, 1 g/L NH4Cl, 0.1 mmol/L CaCl2, 2 mmol/L MgSO4, 4% glycerol, and 20 g/L casamino acids) supplemented with 50 μg/mL kanamycin.
(§4) • Prepare first growth plate, with 450 μL rich M9 media in each well. • Pipette 50 μL of starter culture into each well in rows B-G of the plate (leaving rows A and H blank). • Use a E. coli containing a different lacI variant for each row. • Seal first growth plate with gas permeable membrane. • Incubate plate in plate reader for 12 h to 14 h. • Grow to stationary to provide a reproducible starting point for each measurement. • Prepare second growth plate with 490 μL in each well. • Dilution series of isopropyl-β-D-thiogalactopyranoside (IPTG): 11 columns of a 2-fold serial dilution gradient and one column with zero IPTG. • Ten minutes before the end of the incubation cycle for the first growth plate, move the second growth plate to a heated station set to 47°C. • Ten minutes at 47°C will pre-warm the media in the plate to 37°C. • De-seal the first growth plate (after completion of the stationary-phase incubation cycle). • Pipette 10 μL from each well in the first growth plate to the corresponding well in the second growth plate. • 50-fold dilution; using a 96-channel pipetting head. • Seal second growth plate with gas permeable membrane. • Incubate second growth plate in plate reader for 160 minutes. • Sufficient for approximately 10-fold increase in cell density or 3.3 doublings. • Prepare third growth plate with 450 μL in each well. • Same dilution series as in second growth plate. • Ten minutes before the end of the incubation cycle for the second growth plate, move the third growth plate to a heated station set to 47°C. • De-seal the second growth plate (after completion of the 160 minute incubation cycle). • Pipette 50 μL from each well in the second growth plate to the corresponding well in the third growth plate. • 10-fold dilution; using a 96-channel pipetting head. • Seal third growth plate with gas permeable membrane. • Incubate third growth plate in plate reader for 160 minutes. • Prepare flow cytometry sample plate (round-bottom 96-well plate, Falcon, 351177). • Each well in rows B-G: 195 μL 1x PBS with 170 μg/mL chloramphenicol (Fisher BioReagents, cat. #BP904-100). • Rows A and H: PBS blanks, focusing fluid blanks, and space for calibration bead sample • At the end of the incubation cycle for the third growth plate, pipette 5 μL from each well to the corresponding well in the flow cytometry sample plate.
(§5) Flow cytometry samples were measured with an Attune NxT flow cytometer equipped with a 96-well plate autosampler using a 488 nm excitation laser and a 530 nm ± 15 nm bandpass emission filter. Blank samples were measured with each batch of cell measurements, and an automated gating algorithm was used to discriminate cell events from non-cell events. Fluorescence calibration beads (Spherotech, part no. RCP-30-20A) were also measured with each batch of samples to facilitate calibration of flow cytometry data to molecules of equivalent fluorescein (MEF). […]

The target of the next assay is T2, pVER-IPTG-076 (Escherichia coli, UniProt P03023, A337S/L198Q/S102R/S260F/S93N/V99E).
T2 construct: gene lacI; LacI expressed from pVER plasmid
T2 sequence (P03023 whole entry S93N/V99E/S102R/L198Q/S260F/A337S): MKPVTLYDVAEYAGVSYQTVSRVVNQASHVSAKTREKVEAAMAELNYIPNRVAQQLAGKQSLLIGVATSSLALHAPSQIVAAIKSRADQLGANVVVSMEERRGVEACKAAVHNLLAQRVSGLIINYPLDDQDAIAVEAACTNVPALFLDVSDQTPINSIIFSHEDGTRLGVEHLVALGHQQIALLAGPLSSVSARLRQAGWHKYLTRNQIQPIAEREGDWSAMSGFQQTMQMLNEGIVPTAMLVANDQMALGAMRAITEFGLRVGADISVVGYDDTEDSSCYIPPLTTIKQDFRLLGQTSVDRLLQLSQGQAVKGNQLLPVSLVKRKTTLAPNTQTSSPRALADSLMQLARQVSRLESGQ
The class given is cell-based, E. coli MG1655Δlac. The method, then:
as §1, §2, §3, §4, §5

For the next assay, the target named is T3, pVER-IPTG-002(V80L) (Escherichia coli, UniProt P03023, M254I/S158R/T154I/V238D/V264I/V80L/V96E).
T3 construct: gene lacI; LacI expressed from pVER plasmid
T3 sequence (P03023 whole entry V80L/V96E/T154I/S158R/V238D/M254I/V264I): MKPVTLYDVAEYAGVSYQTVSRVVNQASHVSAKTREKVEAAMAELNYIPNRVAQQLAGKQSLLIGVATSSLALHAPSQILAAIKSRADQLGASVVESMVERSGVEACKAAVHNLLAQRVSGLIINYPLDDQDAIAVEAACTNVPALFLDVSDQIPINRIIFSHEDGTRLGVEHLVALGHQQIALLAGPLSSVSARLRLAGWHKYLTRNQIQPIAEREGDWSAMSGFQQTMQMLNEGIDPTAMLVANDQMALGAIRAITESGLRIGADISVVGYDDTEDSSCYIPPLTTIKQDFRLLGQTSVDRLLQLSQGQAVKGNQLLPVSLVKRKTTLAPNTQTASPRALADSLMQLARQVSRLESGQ
In kind it is cell-based, E. coli MG1655Δlac. The method, then:
as §1, §2, §3, §4, §5

A further assay deals with T4, pVER-IPTG-003 (Escherichia coli, UniProt P03023, A337V/G200V/H74Y/K290R/L262M/Q306H/R207H/V119I/V52M).
T4 construct: gene lacI; LacI expressed from pVER plasmid; stop codon at 352
T4 sequence (P03023 1-351 V52M/H74Y/V119I/G200V/R207H/L262M/K290R/Q306H/A337V): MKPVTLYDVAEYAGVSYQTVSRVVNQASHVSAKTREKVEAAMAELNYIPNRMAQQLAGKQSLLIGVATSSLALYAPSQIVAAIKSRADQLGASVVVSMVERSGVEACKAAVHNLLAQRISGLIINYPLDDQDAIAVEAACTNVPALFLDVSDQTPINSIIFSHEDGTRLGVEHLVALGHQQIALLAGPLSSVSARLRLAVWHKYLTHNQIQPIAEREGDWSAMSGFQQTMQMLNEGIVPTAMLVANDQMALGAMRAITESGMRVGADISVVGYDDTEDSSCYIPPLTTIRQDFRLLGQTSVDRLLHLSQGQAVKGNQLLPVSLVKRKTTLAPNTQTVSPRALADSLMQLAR
The class given is cell-based, E. coli MG1655Δlac. The method, then:
as §1, §2, §3, §4, §5

In the next assay the target is T5, pVER-IPTG-001 (Escherichia coli, UniProt P03023, D130E/D267N/N333I/Q55H/T258I/V192A/Y273H).
T5 construct: gene lacI; LacI expressed from pVER plasmid
T5 sequence (P03023 whole entry Q55H/D130E/V192A/T258I/D267N/Y273H/N333I): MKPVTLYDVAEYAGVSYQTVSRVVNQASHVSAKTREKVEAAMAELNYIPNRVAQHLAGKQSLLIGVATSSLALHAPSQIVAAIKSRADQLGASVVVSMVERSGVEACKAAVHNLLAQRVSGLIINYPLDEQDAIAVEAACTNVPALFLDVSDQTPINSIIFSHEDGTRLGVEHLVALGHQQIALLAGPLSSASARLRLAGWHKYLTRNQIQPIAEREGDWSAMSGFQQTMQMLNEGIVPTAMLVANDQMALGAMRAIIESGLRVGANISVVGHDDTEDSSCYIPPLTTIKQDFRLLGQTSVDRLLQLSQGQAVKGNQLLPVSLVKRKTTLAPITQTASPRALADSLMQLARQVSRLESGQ
In kind it is cell-based, E. coli MG1655Δlac. The method, then:
as §1, §2, §3, §4, §5

For a further assay, the target named is T6, pVER-IPTG-006 (Escherichia coli, UniProt P03023, A241V/A341T/D88Y/L305M/L319F/L346S/N246S/P339T).
T6 construct: gene lacI; LacI expressed from pVER plasmid
T6 sequence (P03023 whole entry D88Y/A241V/N246S/L305M/L319F/P339T/A341T/L346S): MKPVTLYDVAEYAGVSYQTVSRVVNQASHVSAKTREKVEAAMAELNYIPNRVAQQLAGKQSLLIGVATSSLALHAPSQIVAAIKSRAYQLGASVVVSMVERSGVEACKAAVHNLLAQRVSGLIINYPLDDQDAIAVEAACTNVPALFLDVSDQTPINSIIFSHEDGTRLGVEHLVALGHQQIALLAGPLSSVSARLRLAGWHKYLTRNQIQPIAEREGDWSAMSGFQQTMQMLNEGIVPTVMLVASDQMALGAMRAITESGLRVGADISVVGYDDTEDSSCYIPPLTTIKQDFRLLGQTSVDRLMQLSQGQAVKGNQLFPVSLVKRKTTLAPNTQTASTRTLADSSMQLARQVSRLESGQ
The class given is cell-based, E. coli MG1655Δlac. The method, then: as §1, §2, §3, §4, §5

Another assay has as its target T7, pVER-IPTG-080 (Escherichia coli, UniProt P03023, A109E/D165V/E259G/G166A/R255C).
T7 construct: gene lacI; LacI expressed from pVER plasmid
In kind it is cell-based, E. coli MG1655Δlac. The method, then: as §1, §2, §3, §4, §5

For the next assay, the target named is T8, pVER-IPTG-004 (Escherichia coli, UniProt P03023, A87P/E357G/V301M).
T8 construct: gene lacI; LacI expressed from pVER plasmid
T8 sequence (P03023 whole entry A87P/V301M/E357G): as the sequence (P03023 whole entry S93N/V99E/S102R/L198Q/S260F/A337S) above, with A87P, N93S, E99V, R102S, Q198L, F260S, V301M, S337A, E357G counted along it
In kind it is cell-based, E. coli MG1655Δlac. The method, then:
as §1, §2, §3, §4, §5

Another assay addresses T9, pVER-IPTG-008 (Escherichia coli, UniProt P03023, A266T/I237T/I289F/S61L/T258S).
T9 construct: gene lacI; LacI expressed from pVER plasmid; stop codon at 351
In kind it is cell-based, E. coli MG1655Δlac. The method, then: as §1, §2, §3, §4, §5

For the next assay, the target named is T10, pVER-IPTG-078 (Escherichia coli, UniProt P03023, A110V/A72V/N142D/S322L).
T10 construct: gene lacI; LacI expressed from pVER plasmid
T10 sequence (P03023 whole entry A72V/A110V/N142D/S322L): as the sequence (P03023 whole entry S93N/V99E/S102R/L198Q/S260F/A337S) above, with A72V, N93S, E99V, R102S, A110V, N142D, Q198L, F260S, S322L, S337A counted along it
In kind it is cell-based, E. coli MG1655Δlac. The method, then:
as §1, §2, §3, §4, §5

The target of the next assay is T11, pVER-IPTG-002(S70R) (Escherichia coli, UniProt P03023, M254I/S158R/S70R/T154I/V238D/V264I/V96E).
T11 construct: gene lacI; LacI expressed from pVER plasmid
T11 sequence (P03023 whole entry S70R/V96E/T154I/S158R/V238D/M254I/V264I): as the sequence (P03023 whole entry V80L/V96E/T154I/S158R/V238D/M254I/V264I) above, with S70R, L80V counted along it
The class given is cell-based, E. coli MG1655Δlac. The method, then:
as §1, §2, §3, §4, §5

A further assay has as its target T12, pVER-IPTG-WT (Escherichia coli, UniProt P03023).
T12 construct: gene lacI; full-length LacI expressed from pVER plasmid; wild type
The class given is cell-based. The method, then:
as §1
Dose-response curves were measured with flow cytometry using E. coli MG1655Δlac transformed with variants of the pVER plasmid, described previously. The plasmid contained different variants of the lacI coding DNA sequence (CDS), as described in the text, and an expression cassette with enhanced yellow fluorescent protein (eYFP) under the control of the lactose operator (lacO). The lacI CDS was verified with Sanger sequencing for each variant. […]
as §5

Data on one molecule can be found in article PMC10057847, “Precision engineering of biological function with large-scale measurements and machine learning” (PLOS ONE, 2023).

T12 sequence (P03023 whole entry): as the sequence (P03023 whole entry S93N/V99E/S102R/L198Q/S260F/A337S) above, with N93S, E99V, R102S, Q198L, F260S, S337A counted along it
T7 sequence (P03023 whole entry A109E/D165V/G166A/R255C/E259G): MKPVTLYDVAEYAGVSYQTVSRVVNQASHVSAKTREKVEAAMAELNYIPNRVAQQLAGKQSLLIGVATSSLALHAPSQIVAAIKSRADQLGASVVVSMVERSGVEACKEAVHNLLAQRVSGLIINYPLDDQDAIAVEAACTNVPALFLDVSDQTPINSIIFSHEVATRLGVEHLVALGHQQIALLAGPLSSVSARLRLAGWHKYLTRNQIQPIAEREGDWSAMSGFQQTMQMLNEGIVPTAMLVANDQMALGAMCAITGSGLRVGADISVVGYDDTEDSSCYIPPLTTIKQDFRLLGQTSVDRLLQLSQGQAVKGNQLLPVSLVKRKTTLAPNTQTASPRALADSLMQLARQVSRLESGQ
T9 sequence (P03023 1-350 S61L/I237T/T258S/A266T/I289F): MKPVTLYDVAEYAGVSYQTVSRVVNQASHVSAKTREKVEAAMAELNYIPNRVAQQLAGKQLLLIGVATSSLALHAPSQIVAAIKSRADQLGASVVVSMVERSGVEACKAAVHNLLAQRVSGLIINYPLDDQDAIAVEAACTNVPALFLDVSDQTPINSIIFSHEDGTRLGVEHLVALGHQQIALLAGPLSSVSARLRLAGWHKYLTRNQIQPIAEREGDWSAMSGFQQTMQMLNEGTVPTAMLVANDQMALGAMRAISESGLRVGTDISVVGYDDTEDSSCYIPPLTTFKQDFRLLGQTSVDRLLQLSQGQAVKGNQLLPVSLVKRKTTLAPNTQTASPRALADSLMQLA
T1 sequence (P03023 whole entry A87P/V136E/V301M/E357G): as the sequence (P03023 whole entry A109E/D165V/G166A/R255C/E259G) above, with A87P, E109A, V136E, V165D, A166G, C255R, G259E, V301M, E357G counted along it

Consider `CC(C)S[C@@H]1O[C@H](CO)[C@H](O)[C@H](O)[C@H]1O` [IPTG, isopropyl-β-D-thiogalactopyranoside], for which the EC50 is 421000 µmol/L at pVER-IPTG-004(V136E); 4.31 µmol/L on pVER-IPTG-076; 47.7 µmol/L at pVER-IPTG-002(V80L); 162 µmol/L on pVER-IPTG-003; 774 µmol/L on pVER-IPTG-001; 540 µmol/L at pVER-IPTG-006. The EC50 at pVER-IPTG-080 was 6.96 µmol/L; at pVER-IPTG-004, 234 µmol/L; on pVER-IPTG-008 it was 77.3 µmol/L; at pVER-IPTG-078 it was 3.61 µmol/L; at pVER-IPTG-002(S70R), 4690 µmol/L; at pVER-IPTG-WT, 119 µmol/L.
